The results in this text go back to patent publication US20200199247A1, “ANTIBODY CONJUGATES OF IMMUNE-MODULATORY COMPOUNDS AND USES THEREOF” (SILVERBACK THERAPEUTICS, INC., priority 2017, published 2020).

Peptide text beside a SMILES is read from it. * marks the point of attachment. Cbz = O=C(OCc1ccccc1)*

Assay [1] deals with T1, TGFβR1 (Homo sapiens, UniProt P36897).
T1 sequence (P36897 34-503): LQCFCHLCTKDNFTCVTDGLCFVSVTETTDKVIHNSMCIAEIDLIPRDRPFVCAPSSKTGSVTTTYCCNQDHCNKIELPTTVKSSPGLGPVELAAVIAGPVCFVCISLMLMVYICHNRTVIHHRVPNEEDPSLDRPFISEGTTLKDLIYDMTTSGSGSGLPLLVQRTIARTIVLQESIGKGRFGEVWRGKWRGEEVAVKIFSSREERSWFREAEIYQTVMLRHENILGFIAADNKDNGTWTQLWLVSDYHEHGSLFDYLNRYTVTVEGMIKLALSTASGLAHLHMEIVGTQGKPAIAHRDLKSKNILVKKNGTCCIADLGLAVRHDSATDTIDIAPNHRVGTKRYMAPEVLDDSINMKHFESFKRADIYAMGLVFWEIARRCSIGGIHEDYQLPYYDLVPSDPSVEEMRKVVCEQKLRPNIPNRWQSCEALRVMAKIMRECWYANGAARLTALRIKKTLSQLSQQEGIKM
The assay can be described thus: TGFβR1 level in HER2-transfected HEK293 cells (western blot). Details: Plasmid expressing HER2 was transfected into HEK293 cells; endogenous in cells; host or cells: HEK293 cells transiently transfected with a HER2 plasmid. Type of assay: cell-based. The following applies: 2, 24 and 48 hours of treatment.
Description: After treatment, media is aspirated and cells are rinsed with ice cold PBS. Ice cold lysis buffer (20 mM TrisHCl pH 7.5, 150 mM NaCl, 1% Triton X-100, 2 mM EDTA and 10% glycerol) containing phosphatase and protease inhibitors is added to wells and cells are removed from the plate using a cell scraper. Lysates are transferred to a 1.5 ml tube and rocked for one hour at 4° C. with vortexing every ˜15 minutes. Tubes are spun at 8500×g for 10 minutes and supernatants are drawn into an insulin needle twice. Cell lysates are frozen at ˜80° C. Protein concentration is determined using a BCA assay and equal amounts of samples are boiled with reducing loading buffer. […] Loading controls are detected with 1:15000 diluted primary antibody incubation at room temperature for 1 hour with rocking (Tubulin—Abcam, ab7291; Actin—Abcam, ab8224). […]
Plasmid expressing HER2 was transfected into HEK293 cells using commercially available materials and conditions. […] Whole cell lysates were prepared from cells after 2, 24, or 48 hours incubation and quantitated with a BCA assay. Equal amounts of lysates were run on protein gels, transferred to PVDF, and TGFβR2 was detected using commercially available reagents. To quantitate the amount of protein degradation, the signals on the Western blot were adjusted to actin loading control and data is presented as a percent of matched control.

Assay [2] addresses T1, TGFβR1. The assay can be described thus: Cellular level of TGFβR1 in normal human lung fibroblasts with or without proteasome inhibitor (western blot). Details: endogenous in cells; host or cells: normal human lung fibroblasts. Type of assay: cell-based. As to the method: Cells are plated, allowed to adhere, and treated with vehicle, an inhibitor, a PROTAC or a conjugate in the presence or absence of proteasome inhibitor, such as MG-132. After treatment, media is aspirated and cells are rinsed with ice cold PBS. Ice cold lysis buffer (20 mM TrisHCl pH 7.5, 150 mM NaCl, 1% Triton X-100, 2 mM EDTA and 10% glycerol) containing phosphatase and protease inhibitors is added to wells and cells are removed from the plate using a cell scraper. Lysates are transferred to a 1.5 ml tube and rocked for one hour at 4° C. with vortexing every ˜15 minutes. Tubes are spun at 8500×g for 10 minutes and supernatants are drawn into an insulin needle twice. Cell lysates are frozen at […]. Protein concentration is determined using a BCA assay and equal amounts of samples are boiled with reducing loading buffer. The samples are then subjected to electrophoresis on 4-20% polyacrylamide gels which are then transferred to PVDF membranes. […] Loading controls are detected with 1:15000 diluted primary antibody incubation at room temperature for 1 hour with rocking (Tubulin—Abcam, ab7291; Actin—Abcam, ab8224). […]
Normal human lung fibroblasts were treated with or without proteasome inhibitor MG-132 followed by the addition of DMSO or T-20. Whole cell lysates were prepared and then quantitated with a BCA assay. […] TGFβR1, TGFβR2, and actin were detected using commercially available reagents. […]
On the technique in general: Immunoblotting shows a protein as a band on a membrane.

Consider `Nc1ncc(-c2ccc(CCNC(=O)[C@@H](N)CCCCNC(=O)COc3cccc4c3C(=O)N(C3CCC(=O)NC3=O)C4=O)cc2)nc1C(=O)Nc1cnccc1N1CCOCC1` (stereo partly drawn) [Compound T-20, 3-amino-6-(4-(2-((2S)-2-amino-6-(2-((2-(2,6-dioxopiperidin-3-yl)-1,3-dioxoisoindolin-4-yl)oxy)acetamido)hexanamido)ethyl)phenyl)-N-(4-morpholinopyridin-3-yl)pyrazine-2-carboxamide], for which the “amount of TGFβR1 protein” value at TGFβR1 [1] was “remained fairly constant”. For the same compound, the “degradation of TGFβR1” value at TGFβR1 [2] (5 μM T-20) is given as “degradation induced by T-20”.

Consider `CC(C)C[C@@H](C=O)NC(=O)[C@H](CC(C)C)NC(=O)[C@H](CC(C)C)NC(=O)OCc1ccccc1` [MG-132, reference compound] (Cbz-Leu-Leu-Leu-aldehyde), for which the “effect of proteasome inhibitor on T-20 induced degradation of TGFβR1” value on TGFβR1 [2] (MG132 10 and 50 μM followed by 5 μM T-20) is on record as “protected”.
